Publication PMC11388056 (Clinical and Translational Science, 2024)
Read-outs that look alike come from different tables or passages of the source. Marks after values point to notes of the source that are not given here. One block for each molecule: values may come before it.

Key:
[1] = participants with advanced solid tumors; cited from earlier work
P‐glycoprotein (P‐gp) = conditions: in vitro; cited from earlier work
[2] = cited from earlier work
Safety evaluation [3] = assay type: in vivo, human (healthy adults); conditions: part 1, treatments pooled
[4] = cited from earlier work; remark: listed apart in the source
[5] = for futibatinib CL/F: arithmetic mean ± SD
clinical [6] = conditions: human, plasma, 20 mg
[7] = Phase I DDI study part 1: plasma rosuvastatin PK with and without futibatinib; assay type: in vivo, human (healthy adults)
Safety evaluation [8] = assay type: in vivo, human (healthy adults); conditions: part 2; of a total of 27 TEAEs
[9] = for digoxin CL/F: arithmetic mean ± SD
clinical [10] = conditions: human, plasma, oral, geometric mean (geometric CV%), n = 20
[11] = with itraconazole; cited from earlier work
[12] = quinidine coadministration vs. futibatinib alone
[13] = after coadministration with futibatinib vs. rosuvastatin plus digoxin
[14] = digoxin + rosuvastatin, without futibatinib, arithmetic mean ± SD, 18 participants
[15] = digoxin + rosuvastatin, without futibatinib, median (min, max)

SMILES: C=CC(=O)N1CC[C@H](n2nc(C#Cc3cc(OC)cc(OC)c3)c3c(N)ncnc32)C1 [futibatinib]
terminal elimination half‐life (t ½) [1]: approximately 3 h
substrate of P‐gp (P‐glycoprotein (P‐gp)): substrate
difference in futibatinib exposure ([2]; administered with or without lansoprazole): no significant differences
futibatinib bioavailability lower ([2]; fed versus fasted conditions, healthy participants): 11.2%
TEAE diarrhea (Safety evaluation [3]): 80%
TEAE increased blood phosphate (Safety evaluation [3]): 75%
futibatinib exposure increased ([4]; coadministered with itraconazole (dual P‐gp and CYP3A inhibitor)): 41%–51%
futibatinib exposure decreased ([4]; coadministered with rifampin (dual P‐gp and CYP3A inducer)): 53%–64%
futibatinib CL/F ([5]; futibatinib + quinidine, n = 15): 34.3 ± 13.2 L/h
futibatinib AUCinf ([5]; futibatinib + quinidine, geometric mean (geometric CV%), n = 15): 627.0 (41.6) ng*h/mL
futibatinib CL/F ([5]; futibatinib alone, n = 24): 43.1 ± 40.8 L/h
increase in futibatinib C max and AUC [5, 12]: < 20%
magnitude of increase in futibatinib AUC0–24 [5, 12]: 16%
magnitude of increase in futibatinib AUCinf (exposure) [5, 12]: 17%
magnitude of increase in futibatinib C max [5, 12]: 8%
futibatinib AUC0–24 GMR (90% CI) ([5]; with vs. without quinidine): 116.4 (95.4–142.1) %
futibatinib AUCinf GMR (90% CI) ([5]; with vs. without quinidine): 117.0 (96.0–142.7) %
futibatinib C max GMR (90% CI) ([5]; with vs. without quinidine): 108.0 (90.9–128.3) %
Vd/F (clinical [6]; oral): 132 ± 72.2 L
half-life (clinical [6]; oral): 2.5 ± 0.83 h
AUC(0-inf) (clinical [6]; oral, futibatinib AUCinf, futibatinib alone, geometric mean (geometric CV%), n = 24): 582 ng·h/mL
AUC(0-t) (clinical [6]; po): 580 ng·h/mL

geometric mean rosuvastatin AUCs higher [7, 13]: ≤ 18.8%
geometric mean rosuvastatin C max higher [7, 13]: 10.2%
rosuvastatin CL/F ([7]; digoxin + rosuvastatin with futibatinib, arithmetic mean ± SD): 207.2 ± 105.7 L/h
rosuvastatin CL/F [7, 14]: 247.3 ± 167.2 ^c L/h
rosuvastatin t ½ [7, 14]: 16.7 ± 8.5 ^c h
rosuvastatin T max [7, 15]: 4.0 (1.0, 6.1) h
AUC(0-inf) ([7]; human, plasma, oral, rosuvastatin AUCinf, digoxin + rosuvastatin, without futibatinib, geometric mean (geometric CV%), 18 participants): 46.9 ng·h/mL
increase in rosuvastatin C max and AUC ([7]; with vs. without futibatinib): < 20%
rosuvastatin AUC0–72 GMR (90% CI) ([7]; with vs. without futibatinib): 118.8 (107.9–130.7) %
rosuvastatin AUCinf GMR (90% CI) ([7]; with vs. without futibatinib): 113.5 (102.6–125.5) %
rosuvastatin C max GMR (90% CI) ([7]; with vs. without futibatinib): 110.2 (97.3–124.8) %
SMILES: CC(C)c1nc(N(C)S(C)(=O)=O)nc(-c2ccc(F)cc2)c1/C=C/[C@@H](O)C[C@@H](O)CC(=O)O [rosuvastatin]

SMILES: C=C[C@H]1C[N@@]2CC[C@H]1C[C@@H]2[C@@H](O)c1ccnc2ccc(OC)cc12 [quinidine]
TEAEs considered by the investigator to be related to the drug (Safety evaluation [8]): 22 events

digoxin CL/F ([9]; digoxin + rosuvastatin with futibatinib, 19 participants): 14.6 ± 5.4 ^a L/h
digoxin CL/F ([9]; digoxin + rosuvastatin, without futibatinib): 14.6 ± 4.1 L/h
digoxin T max [9, 15]: 1.0 (0.67, 2.0) h
mean digoxin renal clearance lower ([9]; digoxin administered with futibatinib vs. without): 13%
delay of median digoxin T max ([9]; following digoxin, rosuvastatin and futibatinib vs. without futibatinib): ~ 0.3 h
difference in digoxin C max and AUC ([9]; with and without futibatinib): < 20%
digoxin AUC0–120 GMR (90% CI) ([9]; with vs. without futibatinib): 103.9 (94.5–114.2) %
digoxin AUCinf GMR (90% CI) ([9]; with vs. without futibatinib): 100.2 (90.8–110.5) %
digoxin C max GMR (90% CI) ([9]; with vs. without futibatinib): 95.1 (81.1–111.5) %
digoxin CLr GMR (90% CI) ([9]; with vs. without futibatinib): 87.1 (80.8–93.9) %
AUC(0-inf) (clinical [10]; digoxin AUCinf, digoxin + rosuvastatin, without futibatinib): 17.7 ng·h/mL
Cmax (clinical [10]; digoxin C max, digoxin + rosuvastatin with futibatinib 20 mg once daily): 0.953 ng/mL
SMILES: C[C@H]1O[C@@H](O[C@H]2[C@@H](O)C[C@H](O[C@H]3[C@@H](O)C[C@H](O[C@H]4CC[C@@]5(C)[C@H](CC[C@@H]6[C@@H]5C[C@@H](O)[C@]5(C)[C@@H](C7=CC(=O)OC7)CC[C@]65O)C4)O[C@@H]3C)O[C@@H]2C)C[C@H](O)[C@@H]1O [digoxin]

SMILES: CCN1C(=O)N(c2c(F)c(OC)cc(OC)c2F)Cc2cnc3[nH]c(CN4CCOCC4)cc3c21 [pemigatinib]
increase in pemigatinib AUC [11]: 88%
increase in pemigatinib C max [11]: 17%
